# Columns and labels:
# Test in all cases: relative viability (nuclei count vs DMSO), 5 days (fraction); higher = more cells survive
# [1] = compound: COc1cc2c(Oc3ccc4[nH]c(C)cc4c3F)ncnc2cc1OCCCN1CCCC1 [Cediranib] + NC(=O)Nc1cc(-c2cccc(F)c2)sc1C(=O)N[C@H]1CCCNC1 [AZD7762] (partner 0.2 µM)
# Outline: (§1)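 One day after seeding in 1536-well plates, lung cancer cell lines were dosed by pin tool. Dosing was either single-drug or a fixed anchor-drug dose plus five library-drug doses (not always all listed) in √10 steps. After 5 days, nuclei were stained in one fix-and-stain step and counted on 4× images, and relative viability is the nuclei count of treated wells over that of vehicle wells, given as the median of duplicate plates.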
# [2] = compound: Nc1ncn([C@H]2C[C@H](O)[C@@H](CO)O2)c(=O)n1 [Decitabine] + COc1cc2c(Oc3ccc(NC(=O)C4(C(=O)Nc5ccc(F)cc5)CC4)cc3F)ccnc2cc1OCCCN1CCOCC1 [Foretinib] (partner 0.25 µM)
# Outline: as §1
# [3] = compound: Nc1ncn([C@H]2C[C@H](O)[C@@H](CO)O2)c(=O)n1 [Decitabine] + C[C@]1(O)C[C@@H](c2nc(-c3ccc4ccc(-c5ccccc5)nc4c3)c3c(N)nccn32)C1 [Linsitinib] (partner 1 µM)
# Outline: as §1
# [4] = compound: O=C(C[C@H]1NCCC[C@@H]1O)Cn1cnc2cc(Br)c(Cl)cc2c1=O (racemic) [Halofuginone] + C[C@@H](Oc1cc(-c2cnn(C3CCNCC3)c2)cnc1N)c1c(Cl)ccc(F)c1Cl [Crizotinib] (partner 1 µM)
# Outline: as §1
Cell Line,relative viability ([1]; first compound 0.04 µM),relative viability ([1]; first compound 0.4 µM),relative viability ([1]; first compound 1.265 µM),relative viability ([1]; first compound 4 µM),relative viability ([2]; first compound 0.04 µM),relative viability ([2]; first compound 0.1265 µM),relative viability ([2]; first compound 0.4 µM),relative viability ([2]; first compound 1.265 µM),relative viability ([2]; first compound 4 µM),relative viability ([3]; first compound 0.04 µM),relative viability ([3]; first compound 0.1265 µM),relative viability ([3]; first compound 0.4 µM),relative viability ([3]; first compound 1.265 µM),relative viability ([3]; first compound 4 µM),relative viability ([4]; first compound 0.001 µM),relative viability ([4]; first compound 0.003162 µM),relative viability ([4]; first compound 0.01 µM),relative viability ([4]; first compound 0.03162 µM),relative viability ([4]; first compound 0.1 µM),relative viability ([1]; first compound 0.1265 µM)
LXF-289,1.12,1.02,0.971,1.11,0.713,0.541,0.399,0.289,0.269,0.893,0.674,0.566,0.372,0.395,0.829,0.737,0.746,0.825,0.653,–
NCI-H23,0.222,0.246,0.331,0.286,0.692,0.533,0.393,0.39,0.359,0.571,0.381,0.252,0.215,0.229,0.582,0.724,0.486,0.609,0.218,0.383
NCI-H322M,0.621,0.495,0.424,0.565,0.818,0.872,0.669,0.485,0.473,0.773,0.844,0.737,0.497,0.472,0.982,0.911,0.906,1.01,0.77,0.671
NCI-H358,0.613,0.478,0.596,0.502,0.53,0.406,0.274,0.142,0.136,0.87,0.822,0.521,0.272,0.293,0.832,0.678,0.467,0.253,0.0914,0.496
NCI-H441,1.26,1.07,1.16,1.18,0.396,0.401,0.347,0.25,0.325,0.282,0.407,0.272,0.19,0.165,0.967,1.1,0.677,0.694,0.311,1.25
NCI-H460,0.727,0.584,0.574,0.616,0.948,0.816,0.619,0.43,0.193,0.651,0.855,0.669,0.168,0.114,1.05,1.06,0.866,0.409,0.0383,0.679
NCI-H596,1.21,0.853,0.969,1.2,0.764,0.819,–,0.625,0.582,1.07,0.983,0.885,0.826,0.839,1.23,1.05,0.941,1.01,0.666,1.31
NCI-H647,0.498,0.389,0.404,0.475,0.966,0.919,0.509,0.35,0.234,0.989,0.874,0.759,0.234,0.237,0.942,1.13,0.978,0.834,0.0795,0.462

# Source: the supplement of paper PMC10307832
